Source: patent US8192962B2, “Processes for detecting toxic substances” (Daikin Industries, Ltd., priority 2001, dated 2012)

Test system: Mitochondria-located protein genes
Assay: DNA chip mRNA expression in yeast, mitochondria-located protein genes (Table 2)
Assay type: cell-based, Saccharomyces cerevisiae S288C
Conditions: cells incubated two hours with the chemical substance
In short: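 S. cerevisiae S288C grown at 25° C in YPD were exposed in log phase for two hours to one toxic chemical at a growth-inhibiting, non-lethal concentration; untreated cells served as control. Poly(A) mRNA was reverse-transcribed with Cy3/Cy5-dUTP and hybridized to a whole-genome yeast DNA chip at 65° C for over 12 hours; values are fluorescence ratios versus untreated.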

Measured: The level of expressed mRNA in the presence of chemical substance/The level of expressed mRNA in the absence of chemical substance

N#Cc1c(Cl)c(Cl)c(Cl)c(C#N)c1Cl [(9), 2,4,5,6-tetrachloro-1,3-benzenedicarbonitrile]
1.8: yeast gene YCR083W | yeast gene YGR174C | yeast gene YLR259C | yeast gene YPR134W
0.9: yeast gene YBL099W | yeast gene YBR185C | yeast gene YDL067C | yeast gene YDR079W | yeast gene YDR178W | yeast gene YKL170W | yeast gene YNL073W
3.0: yeast gene YPR024W
3.2: yeast gene YJR045C
0.5: yeast gene YBR251W | yeast gene YDR529C | yeast gene YGL018C | yeast gene YPL135W
0.6: yeast gene YGL187C | yeast gene YGR082W | yeast gene YJL133W | yeast gene YOR187W | yeast gene YPL134C
5.8: yeast gene YKL142W | yeast gene YOR020C
1.0: yeast gene YBR003W | yeast gene YBR221C | yeast gene YBR282W | yeast gene YDR298C | yeast gene YDR377W | yeast gene YGR062C | yeast gene YJL096W | yeast gene YLR395C | yeast gene YOR176W
0.4: yeast gene YBL030C | yeast gene YJR077C | yeast gene YLR038C | yeast gene YMR083W | yeast gene YMR267W
4.9: yeast gene YDR258C
2.8: yeast gene YBL022C
0.2: yeast gene YPL040C
6.4: yeast gene YFL016C
1.6: yeast gene YAL039C | yeast gene YOR316C
1.9: yeast gene YCR046C | yeast gene YDL198C
2.1: yeast gene YLR348C | yeast gene YPR047W
5.6: yeast gene YMR089C
0.7: yeast gene YBR091C | yeast gene YDL181W | yeast gene YEL024W | yeast gene YKR066C | yeast gene YLL041C | yeast gene YMR203W
1.5: yeast gene YDR231C | yeast gene YKL003C | yeast gene YMR023C | yeast gene YPR037C
0.1: yeast gene YLR304C
1.3: yeast gene YJL166W | yeast gene YKL016C | yeast gene YKL194C | yeast gene YML120C | yeast gene YOL096C | yeast gene YOR037W
4.2: yeast gene YCL057W
1.4: yeast gene YBL038W | yeast gene YGR244C | yeast gene YJL180C | yeast gene YLR295C | yeast gene YML129C | yeast gene YPL262W
2.5: yeast gene YIL155C
2.7: yeast gene YMR152W
1.1: yeast gene YBR122C | yeast gene YGL191W | yeast gene YNL055C | yeast gene YNL071W | yeast gene YNL104C | yeast gene YOR142W
1.7: yeast gene YER178W | yeast gene YGR028W | yeast gene YHR008C | yeast gene YKL148C | yeast gene YMR035W | yeast gene YPL215W
2.0: yeast gene YOR100C | yeast gene YOR130C
1.2: yeast gene YEL039C | yeast gene YGR076C
0.8: yeast gene YBR044C | yeast gene YDR347W | yeast gene YJR121W | yeast gene YKL141W | yeast gene YNL256W | yeast gene YOR150W
4.1: yeast gene YML054C
3.1: yeast gene YGR008C | yeast gene YJL102W
